Values belong to the compound of their own block, whether it stands above or below them.
Assays:
GSPT1 = target: T1, GSPT1 (Homo sapiens, UniProt P15170+Q96SW2); assay: Western-blot assay of substrate protein degradation in hPBMCs, GSPT1; type: cell-based; conditions: 24 hours of compound treatment, 50 nM and 500 nM tested (concentration behind the class not stated)
T1 construct: endogenous in cells; host or cells: hPBMCs (Milecell Biotechnologies)

[1] = test system: Human acute T lymphocytic leukemia cells (Molt-4); assay: Tumor cell proliferation inhibition (CellTiter-Meiluncell Luminescent Cell Viability Assay), Molt-4; conditions: MOLT-4, read-out: inhibitory activity (IC50, nM) against tumor cells proliferation, Molt-4
IKZF1 = target: T2, IKZF1 (Homo sapiens, UniProt Q13422+Q96SW2); assay: Western-blot assay of substrate protein degradation in hPBMCs, IKZF1; type: cell-based; conditions: 24 hours of compound treatment, 50 nM and 500 nM tested (concentration behind the class not stated)
T2 construct: endogenous in cells; host or cells: hPBMCs (Milecell Biotechnologies)

MV-4-11 = assay: Tumor cell proliferation inhibition (CellTiter-Meiluncell Luminescent Cell Viability Assay), MV-4-11; conditions: Homo sapiens, MV4-11, read-out: inhibitory activity (IC50, nM) against tumor cells proliferation, MV-4-11
Description: The tumor cells used herein were cultured in a cell culture medium listed in table 2 at 37°C in an incubator with 5% CO2. Prior to experimentation, all cell lines used were correctly identified by STR profiling, and tested negative for mycoplasma contamination using a mycoplasma detection kit through routine screenings.
On the following day, the test compounds of the present disclosure were subjected to serial dilution. […] Subsequently, 0.5 µL of the test compound dilution was transferred into the 96-well plate containing the cells, with each well containing 100 µL of cell culture medium. […] Into the 96-well plate, the diluted test compounds and corresponding detection reagents were added, resulting in final test compound concentrations of 500 nM and 10 nM, respectively.
After the cells were treated with the compounds of the present disclosure for a specified period (the treatment durations were shown in Table 3), the cell viability assay reagent was added to the culture medium according to the kit's instructions to determine cell viability. […] All controls were treated using the same procedure as the compounds of the present disclosure. The growth inhibition curves for the compounds of the present disclosure were plotted using Prism GraphPad software, and the IC50 values were calculated therefrom.

CCRF-CEM = assay: Tumor cell proliferation inhibition (CellTiter-Meiluncell Luminescent Cell Viability Assay), CCRF-CEM; conditions: Homo sapiens, read-out: inhibitory activity (IC50, nM) against tumor cells proliferation, CCRF-CEM
CK1α = target: T3, CK1α (Homo sapiens, UniProt P48729+Q96SW2); assay: Western-blot assay of substrate protein degradation in hPBMCs, CK1α; type: cell-based; conditions: 24 hours of compound treatment, 50 nM and 500 nM tested (concentration behind the class not stated)
T3 construct: endogenous in cells; host or cells: hPBMCs (Milecell Biotechnologies)

IKZF2 = target: T4, IKZF2 (Homo sapiens, UniProt Q96SW2+Q9UKS7); assay: Western-blot assay of substrate protein degradation in hPBMCs, IKZF2; type: cell-based; conditions: 24 hours of compound treatment, 50 nM and 500 nM tested (concentration behind the class not stated)
T4 construct: endogenous in cells; host or cells: hPBMCs (Milecell Biotechnologies)

WEE1 = target: T5, WEE1 (Homo sapiens, UniProt P30291+Q96SW2); assay: Western-blot assay of substrate protein degradation in hPBMCs, WEE1; type: cell-based; conditions: 24 hours of compound treatment, 50 nM and 500 nM tested (concentration behind the class not stated)
T5 construct: endogenous in cells; host or cells: hPBMCs (Milecell Biotechnologies)

IKZF3 = target: T6, IKZF3 (Homo sapiens, UniProt Q96SW2+Q9UKT9); assay: Western-blot assay of substrate protein degradation in hPBMCs, IKZF3; type: cell-based; conditions: 24 hours of compound treatment, 50 nM and 500 nM tested (concentration behind the class not stated)
T6 construct: endogenous in cells; host or cells: hPBMCs (Milecell Biotechnologies)

[2] = target: T7, human Cereblon WT GST-tagged protein (Homo sapiens, UniProt Q96SW2); assay: CRBN-binding affinity by HTRF (CEREBLON BINDING kit); conditions: HTRF inhibitory activity, CEREBLON BINDING kit; read-out: HTRF IC50
T7 construct: purchased CISBIO 64BDCRBNPEH
T7 sequence (Q96SW2 whole entry): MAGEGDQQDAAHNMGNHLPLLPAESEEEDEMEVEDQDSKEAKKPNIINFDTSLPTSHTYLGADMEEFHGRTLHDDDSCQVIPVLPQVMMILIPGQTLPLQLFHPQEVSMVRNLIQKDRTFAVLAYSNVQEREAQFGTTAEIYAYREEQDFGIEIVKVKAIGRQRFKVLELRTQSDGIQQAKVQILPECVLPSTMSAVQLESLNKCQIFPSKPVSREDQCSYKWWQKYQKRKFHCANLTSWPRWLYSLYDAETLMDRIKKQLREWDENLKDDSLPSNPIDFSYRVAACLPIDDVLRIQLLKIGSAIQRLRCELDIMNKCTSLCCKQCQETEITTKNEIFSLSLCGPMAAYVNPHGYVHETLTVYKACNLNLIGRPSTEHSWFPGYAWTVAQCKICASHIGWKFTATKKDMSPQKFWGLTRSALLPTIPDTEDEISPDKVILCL

T3 sequence (P48729 whole entry): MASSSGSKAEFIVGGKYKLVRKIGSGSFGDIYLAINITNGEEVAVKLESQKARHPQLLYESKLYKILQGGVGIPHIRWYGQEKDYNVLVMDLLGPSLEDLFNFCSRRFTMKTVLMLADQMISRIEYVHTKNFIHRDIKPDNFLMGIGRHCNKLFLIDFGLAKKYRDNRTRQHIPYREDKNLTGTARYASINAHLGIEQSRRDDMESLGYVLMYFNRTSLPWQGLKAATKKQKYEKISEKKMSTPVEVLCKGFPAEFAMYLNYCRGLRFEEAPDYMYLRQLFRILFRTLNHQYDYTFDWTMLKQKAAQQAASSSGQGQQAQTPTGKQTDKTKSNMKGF
T3 sequence (Q96SW2 whole entry): as the sequence (Q96SW2 whole entry) above
T3 sequence (Q16531 whole entry partner): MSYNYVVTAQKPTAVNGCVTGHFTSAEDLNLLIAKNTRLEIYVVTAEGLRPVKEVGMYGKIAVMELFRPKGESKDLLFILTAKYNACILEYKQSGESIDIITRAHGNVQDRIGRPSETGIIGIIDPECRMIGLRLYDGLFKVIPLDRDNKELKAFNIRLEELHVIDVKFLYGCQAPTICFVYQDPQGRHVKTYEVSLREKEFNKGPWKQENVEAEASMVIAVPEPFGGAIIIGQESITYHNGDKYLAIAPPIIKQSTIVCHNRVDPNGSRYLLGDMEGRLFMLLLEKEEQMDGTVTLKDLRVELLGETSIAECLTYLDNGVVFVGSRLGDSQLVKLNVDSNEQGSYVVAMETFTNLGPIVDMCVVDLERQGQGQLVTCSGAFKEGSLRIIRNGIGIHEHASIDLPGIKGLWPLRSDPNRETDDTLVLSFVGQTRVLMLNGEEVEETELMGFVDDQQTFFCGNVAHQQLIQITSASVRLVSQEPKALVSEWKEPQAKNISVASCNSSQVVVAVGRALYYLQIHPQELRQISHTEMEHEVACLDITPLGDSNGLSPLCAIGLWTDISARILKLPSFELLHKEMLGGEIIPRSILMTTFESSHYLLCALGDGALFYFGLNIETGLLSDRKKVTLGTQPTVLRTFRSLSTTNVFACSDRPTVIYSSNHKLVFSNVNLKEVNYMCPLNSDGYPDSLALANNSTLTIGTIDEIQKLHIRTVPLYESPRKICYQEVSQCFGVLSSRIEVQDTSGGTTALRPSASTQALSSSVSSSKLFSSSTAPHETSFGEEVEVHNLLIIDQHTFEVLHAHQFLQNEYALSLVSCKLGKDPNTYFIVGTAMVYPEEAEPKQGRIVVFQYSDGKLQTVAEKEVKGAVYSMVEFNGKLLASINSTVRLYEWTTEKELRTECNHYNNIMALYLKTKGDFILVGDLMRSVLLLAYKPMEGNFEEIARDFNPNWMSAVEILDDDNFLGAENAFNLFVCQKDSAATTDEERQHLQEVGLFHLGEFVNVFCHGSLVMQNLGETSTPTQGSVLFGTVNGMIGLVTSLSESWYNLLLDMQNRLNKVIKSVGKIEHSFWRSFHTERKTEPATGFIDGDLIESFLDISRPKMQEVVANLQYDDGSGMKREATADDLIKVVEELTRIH
T2 sequence (Q13422 whole entry): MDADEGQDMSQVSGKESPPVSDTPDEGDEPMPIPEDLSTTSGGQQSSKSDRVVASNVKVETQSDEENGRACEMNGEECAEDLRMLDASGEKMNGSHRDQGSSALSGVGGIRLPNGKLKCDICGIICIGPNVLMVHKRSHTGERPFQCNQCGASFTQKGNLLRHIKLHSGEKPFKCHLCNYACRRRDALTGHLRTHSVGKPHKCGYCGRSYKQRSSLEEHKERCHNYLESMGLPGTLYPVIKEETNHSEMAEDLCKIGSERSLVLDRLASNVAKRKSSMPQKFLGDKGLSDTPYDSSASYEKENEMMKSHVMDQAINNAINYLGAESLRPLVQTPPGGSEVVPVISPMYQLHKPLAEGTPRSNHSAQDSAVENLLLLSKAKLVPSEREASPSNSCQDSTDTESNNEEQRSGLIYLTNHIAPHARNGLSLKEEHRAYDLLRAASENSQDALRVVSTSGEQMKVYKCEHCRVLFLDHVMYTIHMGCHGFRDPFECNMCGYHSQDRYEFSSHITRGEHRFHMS
T2 sequence (Q96SW2 whole entry): as the sequence (Q96SW2 whole entry) above
T2 sequence (Q16531 whole entry partner): as the sequence (Q16531 whole entry partner) above
T5 sequence (P30291 whole entry): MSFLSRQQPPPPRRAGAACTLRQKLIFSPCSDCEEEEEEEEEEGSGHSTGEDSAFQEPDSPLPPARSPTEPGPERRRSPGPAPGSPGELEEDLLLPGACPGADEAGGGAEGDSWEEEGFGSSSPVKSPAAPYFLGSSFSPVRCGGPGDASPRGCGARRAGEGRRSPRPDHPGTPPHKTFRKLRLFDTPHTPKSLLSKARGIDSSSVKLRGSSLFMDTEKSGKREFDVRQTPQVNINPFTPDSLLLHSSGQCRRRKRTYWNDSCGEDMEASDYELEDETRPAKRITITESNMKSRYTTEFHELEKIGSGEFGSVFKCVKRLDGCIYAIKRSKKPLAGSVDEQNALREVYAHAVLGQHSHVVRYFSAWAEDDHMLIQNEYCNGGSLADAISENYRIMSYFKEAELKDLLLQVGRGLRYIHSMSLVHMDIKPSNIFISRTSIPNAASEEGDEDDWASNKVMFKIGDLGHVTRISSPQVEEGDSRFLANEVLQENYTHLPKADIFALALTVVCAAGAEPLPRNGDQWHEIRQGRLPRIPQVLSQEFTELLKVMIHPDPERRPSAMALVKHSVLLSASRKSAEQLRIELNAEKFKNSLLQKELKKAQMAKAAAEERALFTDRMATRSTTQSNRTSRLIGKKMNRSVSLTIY
T5 sequence (Q96SW2 whole entry): as the sequence (Q96SW2 whole entry) above
T5 sequence (Q16531 whole entry partner): as the sequence (Q16531 whole entry partner) above
T6 sequence (Q9UKT9 whole entry): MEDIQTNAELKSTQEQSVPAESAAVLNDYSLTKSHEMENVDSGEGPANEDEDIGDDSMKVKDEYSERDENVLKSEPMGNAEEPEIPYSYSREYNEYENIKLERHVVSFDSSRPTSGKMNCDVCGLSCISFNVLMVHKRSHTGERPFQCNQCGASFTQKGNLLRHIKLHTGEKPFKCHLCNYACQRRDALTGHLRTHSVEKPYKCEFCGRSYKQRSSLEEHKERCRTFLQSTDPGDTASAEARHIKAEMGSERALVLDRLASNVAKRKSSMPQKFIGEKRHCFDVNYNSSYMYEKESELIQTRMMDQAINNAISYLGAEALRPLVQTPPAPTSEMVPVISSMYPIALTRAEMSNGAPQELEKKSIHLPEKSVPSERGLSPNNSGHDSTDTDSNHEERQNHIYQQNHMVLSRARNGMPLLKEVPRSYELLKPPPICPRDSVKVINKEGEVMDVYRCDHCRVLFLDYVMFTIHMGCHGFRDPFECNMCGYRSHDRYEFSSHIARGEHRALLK
T6 sequence (Q96SW2 whole entry): as the sequence (Q96SW2 whole entry) above
T6 sequence (Q16531 whole entry partner): as the sequence (Q16531 whole entry partner) above
T1 sequence (P15170 whole entry): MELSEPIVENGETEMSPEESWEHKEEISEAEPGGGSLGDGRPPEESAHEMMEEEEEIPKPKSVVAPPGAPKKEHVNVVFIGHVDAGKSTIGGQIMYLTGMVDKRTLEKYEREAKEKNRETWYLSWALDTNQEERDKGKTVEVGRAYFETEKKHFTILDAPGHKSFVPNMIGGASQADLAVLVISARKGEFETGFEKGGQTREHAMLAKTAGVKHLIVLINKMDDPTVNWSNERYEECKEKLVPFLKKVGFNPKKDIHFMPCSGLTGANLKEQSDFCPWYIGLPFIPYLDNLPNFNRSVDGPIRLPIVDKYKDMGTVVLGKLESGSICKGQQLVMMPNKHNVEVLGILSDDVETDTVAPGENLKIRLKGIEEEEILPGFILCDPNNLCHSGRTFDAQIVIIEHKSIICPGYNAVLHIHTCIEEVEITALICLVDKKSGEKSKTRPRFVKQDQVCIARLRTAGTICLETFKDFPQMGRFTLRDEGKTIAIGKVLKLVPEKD
T1 sequence (Q96SW2 whole entry): as the sequence (Q96SW2 whole entry) above
T1 sequence (Q16531 whole entry partner): as the sequence (Q16531 whole entry partner) above

Compound: O=C1CCC(N2C(=O)c3ccc(CN4CC=C(c5cncc(Cl)c5)CC4)cc3C2=O)C(=O)N1 (centres unmarked) [GT-06611, 5-((5-chloro-3',6'-dihydro-[3,4'-bipyridin]-1'(2'H)-yl)methyl)-2-(2,6-dioxopiperidin-3-yl)isoindoline-1,3-dione]
GSPT1 substrate protein remaining % (GSPT1): A (0% ≤ substrate protein remaining % ≤ 80%)
IC50 [1]: 500 to 1000 nM
IKZF 1 substrate protein remaining % (IKZF1): A (0% ≤ substrate protein remaining % ≤ 80%)
IC50 (MV-4-11): 100 to 500 nM
IC50 (CCRF-CEM): 100 to 500 nM
CK1a substrate protein remaining % (CK1α): A (0% ≤ substrate protein remaining % ≤ 80%)
IKZF2 substrate protein remaining % (IKZF2): A (0% ≤ substrate protein remaining % ≤ 80%)
Weel substrate protein remaining % (WEE1): A (0% ≤ substrate protein remaining % ≤ 80%)
IKZF3 substrate protein remaining % (IKZF3): A (0% ≤ substrate protein remaining % ≤ 80%)

Compound: O=C1CCC(N2C(=O)c3ccc(CN4CC=C(c5ncccc5F)CC4)cc3C2=O)C(=O)N1 (centres unmarked) [GT-06612, 2-(2,6-dioxopiperidin-3-yl)-5-((3-fluoro-3',6'-dihydro-[2,4'-bipyridin]-1'(2'H)-yl)methyl)isoindoline-1,3-dione]
GSPT1 substrate protein remaining % (GSPT1): A (0% ≤ substrate protein remaining % ≤ 80%)
IC50 [1]: 500 to 1000 nM
IKZF 1 substrate protein remaining % (IKZF1): A (0% ≤ substrate protein remaining % ≤ 80%)
IC50 (MV-4-11): 500 to 1000 nM
IC50 (CCRF-CEM): 500 to 1000 nM
CK1a substrate protein remaining % (CK1α): A (0% ≤ substrate protein remaining % ≤ 80%)
IKZF2 substrate protein remaining % (IKZF2): A (0% ≤ substrate protein remaining % ≤ 80%)
Weel substrate protein remaining % (WEE1): A (0% ≤ substrate protein remaining % ≤ 80%)
IKZF3 substrate protein remaining % (IKZF3): A (0% ≤ substrate protein remaining % ≤ 80%)

Compound: O=C1CCC(N2C(=O)c3ccc(CN4CC=C(c5ccnc(Cl)c5Cl)CC4)cc3C2=O)C(=O)N1 (centres unmarked) [GT-06616, 5-((2',3'-dichloro-3,6-dihydro-[4,4'-bipyridin]-1(2H)-yl)methyl)-2-(2,6-dioxopiperidin-3-yl)isoindoline-1,3-dione]
GSPT1 substrate protein remaining % (GSPT1): A (0% ≤ substrate protein remaining % ≤ 80%)
IC50 [1]: 500 to 1000 nM
IKZF 1 substrate protein remaining % (IKZF1): A (0% ≤ substrate protein remaining % ≤ 80%)
IC50 (MV-4-11): 100 to 500 nM
IC50 [2]: 1500 to 1900 nM
IC50 (CCRF-CEM): 500 to 1000 nM
CK1a substrate protein remaining % (CK1α): A (0% ≤ substrate protein remaining % ≤ 80%)
IKZF2 substrate protein remaining % (IKZF2): B (80%< substrate protein remaining %≤ 100%)
Weel substrate protein remaining % (WEE1): A (0% ≤ substrate protein remaining % ≤ 80%)
IKZF3 substrate protein remaining % (IKZF3): A (0% ≤ substrate protein remaining % ≤ 80%)

IC50 [1]: 100 to 500 nM
IC50 (MV-4-11): 100 to 500 nM
IC50 (CCRF-CEM): 100 to 500 nM
Compound: Cc1nc(C2=CCN(Cc3ccc4c(c3)C(=O)N(C3CCC(=O)NC3=O)C4=O)CC2)c2ccsc2n1 (centres unmarked) [GT-06678, 2-(2,6-dioxopiperidin-3-yl)-5-((4-(2-methylthieno[2,3-d]pyrimidin-4-yl)-3,6-dihydropyridin-1(2H)-yl)methyl)isoindoline-1,3-dione]
GSPT1 substrate protein remaining % (GSPT1): A (0% ≤ substrate protein remaining % ≤ 80%)
IKZF 1 substrate protein remaining % (IKZF1): A (0% ≤ substrate protein remaining % ≤ 80%)
CK1a substrate protein remaining % (CK1α): A (0% ≤ substrate protein remaining % ≤ 80%)
IKZF2 substrate protein remaining % (IKZF2): B (80%< substrate protein remaining %≤ 100%)
Weel substrate protein remaining % (WEE1): A (0% ≤ substrate protein remaining % ≤ 80%)
IKZF3 substrate protein remaining % (IKZF3): A (0% ≤ substrate protein remaining % ≤ 80%)

IC50 (MV-4-11): 500 to 1000 nM
IC50 [2]: 1500 to 1900 nM
Compound: O=C1CCC(N2C(=O)c3ccc(CN4CC=C(c5ncnc6sc7c(c56)CCC7)CC4)cc3C2=O)C(=O)N1 (centres unmarked) [GT-06681, 5-((4-(6,7-dihydro-5H-cyclopenta[4,5]thieno[2,3-d]pyrimidin-4-yl)-3,6-dihydropyridin-1(2H)-yl)methyl)-2-(2,6-dioxopiperidin-3-yl)isoindoline-1,3-dione]
GSPT1 substrate protein remaining % (GSPT1): A (0% ≤ substrate protein remaining % ≤ 80%)
IKZF 1 substrate protein remaining % (IKZF1): A (0% ≤ substrate protein remaining % ≤ 80%)
CK1a substrate protein remaining % (CK1α): B (80%< substrate protein remaining %≤ 100%)
IKZF2 substrate protein remaining % (IKZF2): A (0% ≤ substrate protein remaining % ≤ 80%)
Weel substrate protein remaining % (WEE1): A (0% ≤ substrate protein remaining % ≤ 80%)
IKZF3 substrate protein remaining % (IKZF3): A (0% ≤ substrate protein remaining % ≤ 80%)

IC50 [1]: 500 to 1000 nM
IC50 (MV-4-11): 100 to 500 nM
IC50 (CCRF-CEM): 500 to 1000 nM
Compound: O=C1CCC(N2C(=O)c3ccc(CN4CC=C(c5ncc6ccsc6n5)CC4)cc3C2=O)C(=O)N1 (centres unmarked) [GT-06683, 2-(2,6-dioxopiperidin-3-yl)-5-((4-(thieno[2,3-d]pyrimidin-2-yl)-3,6-dihydropyridin-1(2H)-yl)methyl)isoindoline-1,3-dione]
GSPT1 substrate protein remaining % (GSPT1): A (0% ≤ substrate protein remaining % ≤ 80%)
IKZF 1 substrate protein remaining % (IKZF1): A (0% ≤ substrate protein remaining % ≤ 80%)
CK1a substrate protein remaining % (CK1α): B (80%< substrate protein remaining %≤ 100%)
IKZF2 substrate protein remaining % (IKZF2): A (0% ≤ substrate protein remaining % ≤ 80%)
Weel substrate protein remaining % (WEE1): A (0% ≤ substrate protein remaining % ≤ 80%)
IKZF3 substrate protein remaining % (IKZF3): A (0% ≤ substrate protein remaining % ≤ 80%)

Compound: O=C1CCC(N2C(=O)c3ccc(CN4C5CCC4CN(c4cccc(Cl)c4Cl)C5)cc3C2=O)C(=O)N1 (centres unmarked) [GT-06694, 5-((3-(2,3-dichlorophenyl)-3,8-diazabicyclo[3.2.1]octan-8-yl)methyl)-2-(2,6-dioxopiperidin-3-yl)isoindoline-1,3-dione]
GSPT1 substrate protein remaining % (GSPT1): A (0% ≤ substrate protein remaining % ≤ 80%)
IC50 [1]: 500 to 1000 nM
IKZF 1 substrate protein remaining % (IKZF1): B (80%< substrate protein remaining %≤ 100%)
IC50 (MV-4-11): 100 to 500 nM
IC50 (CCRF-CEM): 500 to 1000 nM
CK1a substrate protein remaining % (CK1α): B (80%< substrate protein remaining %≤ 100%)
IKZF2 substrate protein remaining % (IKZF2): A (0% ≤ substrate protein remaining % ≤ 80%)
Weel substrate protein remaining % (WEE1): A (0% ≤ substrate protein remaining % ≤ 80%)
IKZF3 substrate protein remaining % (IKZF3): B (80%< substrate protein remaining %≤ 100%)

IC50 [1]: 500 to 1000 nM
IC50 (MV-4-11): 100 to 500 nM
IC50 (CCRF-CEM): 500 to 1000 nM
Compound: O=C1CCC(N2C(=O)c3ccc(CN4CC=C(c5c[nH]c6ncccc56)CC4)cc3C2=O)C(=O)N1 (centres unmarked) [GT-06706, 5-((4-(1H-pyrrolo[2,3-b]pyridin-3-yl)-3,6-dihydropyridin-1(2H)-yl)methyl)-2-(2,6-dioxopiperidin-3-yl)isoindoline-1,3-dione]
GSPT1 substrate protein remaining % (GSPT1): A (0% ≤ substrate protein remaining % ≤ 80%)
IKZF 1 substrate protein remaining % (IKZF1): A (0% ≤ substrate protein remaining % ≤ 80%)
CK1a substrate protein remaining % (CK1α): A (0% ≤ substrate protein remaining % ≤ 80%)
IKZF2 substrate protein remaining % (IKZF2): A (0% ≤ substrate protein remaining % ≤ 80%)
Weel substrate protein remaining % (WEE1): A (0% ≤ substrate protein remaining % ≤ 80%)
IKZF3 substrate protein remaining % (IKZF3): A (0% ≤ substrate protein remaining % ≤ 80%)

IC50 (MV-4-11): 100 to 500 nM
IC50 [2]: 1000 to 1500 nM
Compound: O=C1CCC(N2C(=O)c3ccc(CN4CCN(c5nc(N6CCOCC6)c6sccc6n5)CC4)cc3C2=O)C(=O)N1 (centres unmarked) [GT-06718, 2-(2,6-dioxopiperidin-3-yl)-5-((4-(4-morpholinothieno[3,2-d]pyrimidin-2-yl)piperazin-1-yl)methyl)isoindoline-1,3-dione]
GSPT1 substrate protein remaining % (GSPT1): A (0% ≤ substrate protein remaining % ≤ 80%)
IKZF 1 substrate protein remaining % (IKZF1): B (80%< substrate protein remaining %≤ 100%)
CK1a substrate protein remaining % (CK1α): B (80%< substrate protein remaining %≤ 100%)
IKZF2 substrate protein remaining % (IKZF2): B (80%< substrate protein remaining %≤ 100%)
Weel substrate protein remaining % (WEE1): B (80%< substrate protein remaining %≤ 100%)
IKZF3 substrate protein remaining % (IKZF3): B (80%< substrate protein remaining %≤ 100%)
